Tests used:
Test in all cases: relative viability vs DMSO control (72 h) (fraction); higher = more viable cells
HT1080 = tested on: HT1080
Method in brief: (§1)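 Plates held 72 h at 37 °C and 5% CO2 contained sarcoma cell lines seeded in 384-well format to reach 80–90% confluence, plus 2.5 µl of serially diluted compound added after 24 h. Source plate concentrations ran from 10 mM to 0.0002 mM, with 0.1% DMSO as vehicle and a 5 µM positive control. Percent growth from ATPLite readings, averaged over up to triplicate wells, gave relative viability. Values were rescaled with 1 as full and 0 as none.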

SW872 = tested on: SW872
Method in brief: as §1

SW1353 = tested on: SW1353
Method in brief: as §1

KHOS-NP = tested on: KHOS-NP
Method in brief: as §1

RD-ES = tested on: RD-ES
Method in brief: as §1

MES-SA = tested on: MES-SA
Method in brief: as §1

SK-ES-1 = tested on: SK-ES-1
Method in brief: as §1

SW684 = tested on: SW684
Method in brief: as §1

SK-LMS-1 = tested on: SK-LMS-1
Method in brief: as §1

G401 = tested on: G401
Method in brief: as §1

VA-ES-BJ = tested on: VA-ES-BJ
Method in brief: as §1

RD = tested on: RD
Method in brief: as §1

NC(=O)c1cccc2cn(-c3ccc([C@@H]4CCCNC4)cc3)nc12 [Niraparib]
Settings | relative viability
G401, 0.00017 µM | 0.962
G401, 0.00051 µM | 0.988
G401, 0.00152 µM | 1.01
G401, 0.00457 µM | 0.9908
G401, 0.01372 µM | 0.993
G401, 0.04115 µM | 1.03
G401, 0.1235 µM | 0.967
G401, 0.3704 µM | 0.97
G401, 1.111 µM | 0.93
G401, 3.333 µM | 0.929
G401, 10 µM | 0.852
HT1080, 0.00017 µM | 1.06
HT1080, 0.00051 µM | 1.05
HT1080, 0.00152 µM | 1.01
HT1080, 0.00457 µM | 1.04
HT1080, 0.01372 µM | 1.01
HT1080, 0.04115 µM | 1.01
HT1080, 0.1235 µM | 1.041
HT1080, 0.3704 µM | 1.02
HT1080, 1.111 µM | 1.09
HT1080, 3.333 µM | 1.09
HT1080, 10 µM | 1.03
KHOS-NP, 0.00017 µM | 1.05
KHOS-NP, 0.00051 µM | 1.04
KHOS-NP, 0.00152 µM | 1.04
KHOS-NP, 0.00457 µM | 1.06
KHOS-NP, 0.01372 µM | 1.045
KHOS-NP, 0.04115 µM | 1.04
KHOS-NP, 0.1235 µM | 1.06
KHOS-NP, 0.3704 µM | 1.08
KHOS-NP, 1.111 µM | 1.05
KHOS-NP, 3.333 µM | 1.079
KHOS-NP, 10 µM | 1.04
MES-SA, 0.00017 µM | 0.9156
MES-SA, 0.00051 µM | 0.898
MES-SA, 0.00152 µM | 0.868
MES-SA, 0.00457 µM | 0.918
MES-SA, 0.01372 µM | 0.882
MES-SA, 0.04115 µM | 0.893
MES-SA, 0.1235 µM | 0.876
MES-SA, 0.3704 µM | 0.8654
MES-SA, 1.111 µM | 0.824
MES-SA, 3.333 µM | 0.774
MES-SA, 10 µM | 0.598
RD, 0.00017 µM | 1.06
RD, 0.00051 µM | 1.09
RD, 0.00152 µM | 1.1
RD, 0.00457 µM | 1.117
RD, 0.01372 µM | 1.09
RD, 0.04115 µM | 1.12
RD, 0.1235 µM | 1.08
RD, 0.3704 µM | 1.05
RD, 1.111 µM | 1.006
RD, 3.333 µM | 0.899
RD, 10 µM | 0.784
RD-ES, 0.00017 µM | 0.997
RD-ES, 0.00051 µM | 1.01
RD-ES, 0.00152 µM | 0.9697
RD-ES, 0.00457 µM | 0.988
RD-ES, 0.01372 µM | 0.966
RD-ES, 0.04115 µM | 0.966
RD-ES, 0.1235 µM | 0.962
RD-ES, 0.3704 µM | 0.899
RD-ES, 1.111 µM | 0.783
RD-ES, 3.333 µM | 0.504
RD-ES, 10 µM | 0.0364
SK-ES-1, 0.00017 µM | 1.02
SK-ES-1, 0.00051 µM | 1.02
SK-ES-1, 0.00152 µM | 1.01
SK-ES-1, 0.00457 µM | 1.01
SK-ES-1, 0.01372 µM | 1.02
SK-ES-1, 0.04115 µM | 0.975
SK-ES-1, 0.1235 µM | 0.8976
SK-ES-1, 0.3704 µM | 0.822
SK-ES-1, 1.111 µM | 0.525
SK-ES-1, 3.333 µM | 0.311
SK-ES-1, 10 µM | 0.0804
SK-LMS-1, 0.00017 µM | 1.08
SK-LMS-1, 0.00051 µM | 1.12
SK-LMS-1, 0.00152 µM | 1.1
SK-LMS-1, 0.00457 µM | 1.12
SK-LMS-1, 0.01372 µM | 1.12
SK-LMS-1, 0.04115 µM | 1.13
SK-LMS-1, 0.1235 µM | 1.12
SK-LMS-1, 0.3704 µM | 1.1
SK-LMS-1, 1.111 µM | 1.09
SK-LMS-1, 3.333 µM | 1.03
SK-LMS-1, 10 µM | 0.966
SW684, 0.00017 µM | 1.14
SW684, 0.00051 µM | 1.15
SW684, 0.00152 µM | 1.17
SW684, 0.00457 µM | 1.13
SW684, 0.01372 µM | 1.09
SW684, 0.04115 µM | 1.13
SW684, 0.1235 µM | 1.14
SW684, 0.3704 µM | 1.1
SW684, 1.111 µM | 1.13
SW684, 3.333 µM | 1.17
SW684, 10 µM | 1.09
SW872, 0.00017 µM | 1.02
SW872, 0.00051 µM | 1.04
SW872, 0.00152 µM | 1.03
SW872, 0.00457 µM | 1.04
SW872, 0.01372 µM | 0.997
SW872, 0.04115 µM | 1.01
SW872, 0.1235 µM | 1.05
SW872, 0.3704 µM | 1.07
SW872, 1.111 µM | 1.06
SW872, 3.333 µM | 1.07
SW872, 10 µM | 1.02
SW1353, 0.00017 µM | 0.976
SW1353, 0.00051 µM | 0.981
SW1353, 0.00152 µM | 0.969
SW1353, 0.00457 µM | 0.958
SW1353, 0.01372 µM | 0.927
SW1353, 0.04115 µM | 0.965
SW1353, 0.1235 µM | 0.956
SW1353, 0.3704 µM | 0.964
SW1353, 1.111 µM | 0.933
SW1353, 3.333 µM | 0.942
SW1353, 10 µM | 0.904
VA-ES-BJ, 0.00017 µM | 0.985
VA-ES-BJ, 0.00051 µM | 0.995
VA-ES-BJ, 0.00152 µM | 0.976
VA-ES-BJ, 0.00457 µM | 0.96
VA-ES-BJ, 0.01372 µM | 0.99
VA-ES-BJ, 0.04115 µM | 1.01
VA-ES-BJ, 0.1235 µM | 0.983
VA-ES-BJ, 0.3704 µM | 0.947
VA-ES-BJ, 1.111 µM | 0.915
VA-ES-BJ, 3.333 µM | 0.873
VA-ES-BJ, 10 µM | 0.708

— the supplement of paper PMC10883282
